Experimental data published in patent publication US4294757A, “20-O-Acylmaytansinoids” (Takeda Chemical Industries, Ltd, priority 1979, dated 1981).
Converted amounts (≈) assume the structure as drawn.

What was measured:
[1] = system: Hamigera avellanea IFO 7721; experiment: Antifungal activity against Hamigera avellanea IFO 7721, paper disc method; assay type: cell-based; conditions: IFO7721, paper disc 8 mm diameter, 0.02 ml of a 100 μg/ml solution, pH 7.0, read-out: Antifungal activity, φmm (zone of growth inhibition), Hamigera avellanea IFO 7721
Protocol: On the other hand, the antifungal activity of the test compound is assayed against Hamigera avellanea IFO 7721 by the paper disc method, employing agar plates [each containing the medium consisting of 3.5 g of disodium phosphate 0.5 g monopotassium phosphate, 5 g yeast extract (Difco), 10 g glucose, 15 g agar, 1000 ml distilled water, and adjusted to pH 7.0]. Thus, on the plates inoculated with the above microorganism, the zones of growth inhibition are determined using paper discs (supplied by Toyo Seisakusho, Japan, thin-type, 8 mm diameter) immersed with 0.02 ml of a 100 μg/ml solution of 20-O-acylmaytansinoid compound (I).

Tetrahymena pyriformis W = experiment: Antiprotozoal activity against Tetrahymena pyriformis W, serial dilution method; assay type: cell-based; conditions: 28° C., 44 to 48 hours, pH 7.0
Protocol: Then, with Tetrahymena pyriformis W strain used as the test microorganism and a medium composed of 20 g tryptose peptone (Difco), lg yeast extract, 2 g glucose, 1000 ml distilled water and 10 ml of a 1 M phosphate buffer of pH 7.0 as the assay medium, the microorganism is incubated at 28° C. for 44 to 48 hours, and the growth inhibitory activity of said antibiotic compound is assayed by the serial dilution method.

SMILES: CCCC(=O)Oc1cc2cc(c1Cl)N(C)C(=O)CC(OC(=O)C(C)C)C1(C)OC1C(C)C1CC(O)(NC(=O)O1)C(OC)/C=C/C=C(\C)C2 (stereo not drawn) [PDM-3 20-butyrate]
- zone of inhibition at 100 µg/mL [1]: 40 mm

SMILES: COC1/C=C/C=C(\C)Cc2cc(OC(=O)c3ccccc3)c(Cl)c(c2)N(C)C(=O)CC(OC(=O)C(C)C)C2(C)OC2C(C)C2CC1(O)NC(=O)O2 (stereo not drawn) [PDM-3 20-benzoate]
- zone of inhibition at 100 µg/mL [1]: 35 mm

SMILES: CCC(=O)Oc1cc2cc(c1Cl)N(C)C(=O)CC(OC(=O)C(C)C)C1(C)OC1C(C)C1CC(O)(NC(=O)O1)C(OC)/C=C/C=C(\C)C2 (stereo not drawn) [PDM-3 20-propionate]
- zone of inhibition at 100 µg/mL [1]: 34 mm
- MIC (Tetrahymena pyriformis W): 2 mg/L (≈ 2.95 µM)

SMILES: COC1/C=C/C=C(\C)Cc2cc(OC(=O)CC(C)C)c(Cl)c(c2)N(C)C(=O)CC(OC(=O)C(C)C)C2(C)OC2C(C)C2CC1(O)NC(=O)O2 (stereo not drawn) [PDM-3 20-i-valerate, PDM-3 20-isovalerate]
- zone of inhibition at 100 µg/mL [1]: 44 mm
- MIC (Tetrahymena pyriformis W): 2 mg/L (≈ 2.84 µM)

SMILES: C/C=C/C(=O)Oc1cc2cc(c1Cl)N(C)C(=O)CC(OC(=O)C(C)C)C1(C)OC1C(C)C1CC(O)(NC(=O)O1)C(OC)/C=C/C=C(\C)C2 (stereo not drawn) [PDM-3 20-crotonate]
- zone of inhibition at 100 µg/mL [1]: 35 mm

SMILES: COC1/C=C/C=C(\C)Cc2cc(OC(=O)Nc3ccccc3)c(Cl)c(c2)N(C)C(=O)CC(OC(=O)C(C)C)C2(C)OC2C(C)C2CC1(O)NC(=O)O2 (stereo not drawn) [PDM-3 20-phenylcarbamate]
- zone of inhibition at 100 µg/mL [1]: 16.5 mm
- MIC (Tetrahymena pyriformis W): ≤ 1 mg/L

SMILES: COC1/C=C/C=C(\C)Cc2cc(OC(=O)Cc3ccccc3)c(Cl)c(c2)N(C)C(=O)CC(OC(=O)C(C)C)C2(C)OC2C(C)C2CC1(O)NC(=O)O2 (stereo not drawn) [PDM-3 20-phenylacetate]
- zone of inhibition at 100 µg/mL [1]: 31 mm

SMILES: COC1/C=C/C=C(\C)Cc2cc(OC(=O)c3ccccc3Br)c(Cl)c(c2)N(C)C(=O)CC(OC(=O)C(C)C)C2(C)OC2C(C)C2CC1(O)NC(=O)O2 (stereo not drawn) [PDM-3 20-o-bromobenzoate, PDM-3 20-ortho-bromobenzoate]
- zone of inhibition at 100 µg/mL [1]: 27 mm

SMILES: COC1/C=C/C=C(\C)Cc2cc(OC(C)=O)c(Cl)c(c2)N(C)C(=O)CC(OC(=O)C(C)C)C2(C)OC2C(C)C2CC1(O)NC(=O)O2 (stereo not drawn) [PDM-3 20-acetate]
- zone of inhibition at 100 µg/mL [1]: 31 mm
- MIC (Tetrahymena pyriformis W): 2 mg/L (≈ 3.02 µM)

SMILES: COC1/C=C/C=C(\C)Cc2cc(OC(=O)c3ccccn3)c(Cl)c(c2)N(C)C(=O)CC(OC(=O)C(C)C)C2(C)OC2C(C)C2CC1(O)NC(=O)O2 (stereo not drawn) [PDM-3 20-picolinate]
- zone of inhibition at 100 µg/mL [1]: 21 mm
- MIC (Tetrahymena pyriformis W): 2 mg/L (≈ 2.75 µM)

SMILES: COC1/C=C/C=C(\C)Cc2cc(OC(=O)C(C)C)c(Cl)c(c2)N(C)C(=O)CC(OC(=O)C(C)C)C2(C)OC2C(C)C2CC1(O)NC(=O)O2 (stereo not drawn) [PDM-3 20-i-butyrate, PDM-3 20-isobutyrate]
- zone of inhibition at 100 µg/mL [1]: 40 mm

SMILES: CCCCC(=O)Oc1cc2cc(c1Cl)N(C)C(=O)CC(OC(=O)C(C)C)C1(C)OC1C(C)C1CC(O)(NC(=O)O1)C(OC)/C=C/C=C(\C)C2 (stereo not drawn) [PDM-3 20-valerate]
- zone of inhibition at 100 µg/mL [1]: 44 mm

SMILES: COC1/C=C/C=C(\C)Cc2cc(OC(=O)C3CCCCC3)c(Cl)c(c2)N(C)C(=O)CC(OC(=O)C(C)C)C2(C)OC2C(C)C2CC1(O)NC(=O)O2 (stereo not drawn) [PDM-3 20-cyclohexylcarboxylate, PDM-3 20-cyclohexanecarboxylate]
- zone of inhibition at 100 µg/mL [1]: 22 mm
